Reference: US20240182531A1, “KV1.3 Blockers” (priority 2021, published 2024)
Where a SMILES comes first, the peptide text is derived from it. Bridges are numbered along the chain shown (N, C = ends). [ ]: non-standard residue; d: D form. Nle = CCCC[C@H](N)C(=O)O; Orn = NCCC[C@H](N)C(=O)O; Dab = NCC[C@H](N)C(=O)O; Dap = NC[C@H](N)C(=O)O

Key:
[1] = biological target: T1, human Kv1.3 voltage-gated K+ channel (Homo sapiens, UniProt P22001); assay: Kv1.3 blocker activity in FLIPR thallium assay; format: cell-based
T1 construct: host or cells: CHO-DUKX
T1 sequence (P22001 whole entry): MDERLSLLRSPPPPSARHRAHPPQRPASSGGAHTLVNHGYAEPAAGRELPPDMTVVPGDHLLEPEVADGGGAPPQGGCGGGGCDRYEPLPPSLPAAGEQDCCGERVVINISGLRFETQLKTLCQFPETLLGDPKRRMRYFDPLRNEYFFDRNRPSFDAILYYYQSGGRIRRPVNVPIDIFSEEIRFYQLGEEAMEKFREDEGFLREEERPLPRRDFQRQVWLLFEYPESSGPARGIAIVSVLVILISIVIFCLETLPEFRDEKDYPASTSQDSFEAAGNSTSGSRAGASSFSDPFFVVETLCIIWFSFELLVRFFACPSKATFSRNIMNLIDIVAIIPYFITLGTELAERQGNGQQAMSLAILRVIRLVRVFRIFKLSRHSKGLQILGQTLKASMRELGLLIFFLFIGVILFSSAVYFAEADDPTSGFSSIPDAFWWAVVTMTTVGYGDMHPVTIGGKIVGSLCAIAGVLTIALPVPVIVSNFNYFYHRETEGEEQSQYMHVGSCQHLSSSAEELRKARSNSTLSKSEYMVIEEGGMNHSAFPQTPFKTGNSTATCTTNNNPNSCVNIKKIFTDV
Description: A human Kv1.3 voltage-gated K+ channel cell line was purchased from Perkin Elmer (#TDS-AX-010-C-1). The cell line is based on CHO-DUKX cells stably transfected with the human Kv1.3 voltage-gated K+ channel.
The cell line was grown in MEMα with nucleotides, GlutaMAX (Gibco #32571028), 10% Foetal Bovine Serum (FBS), 0.4 mg/ml Geneticin, 100 units/ml Penicillin, and 100 μg/ml Streptomycin and seeded at 10.000 cells/well in black poly-D-lysine-coated 96 well plates.
The FluxOR™ Potassium Ion Channel Assay (Invitrogen #F10016) was used to quantitate flux of thallium ions into the cells as a response to Kv1.3 activation with a stimulus buffer causes depolarization of the cell membrane, thereby generating a fluorescent signal, proportional to channel activity. The assay was performed as described by the assay kit manufacturer including a compound pre-incubation step (30 min, 37° C., 5% CO2) in assay buffer containing 0.02% W/v casein from bovine milk (Sigma #C4765) prior to cell membrane depolarization using a final stimuli buffer composition corresponding to 0.2× FluxOR™ chloride-free buffer, 5 mM K2SO4, 1 mM Tl2SO4. The fluorescence responses were recorded and quantified (maximum response at 50 s, 37° C.) using the FLIPR® Tetra High Throughput Screening System (Molecular Devices, Inc.).
IC50 can be regarded as a measure of potency of inhibition for the respective compound. The IC50 value is a measure of the concentration of an inhibitor required to achieve half of that compound's maximal inhibition of ion channel activity in a given assay.

human Kv1.6 = biological target: T2, human Kv1.6 (Homo sapiens, UniProt P17658); assay: cell-based; details: ratio of patch clamp IC50 values
T2 construct: expressed in transfected cells; host or cells: CHO
T2 sequence (P17658 whole entry): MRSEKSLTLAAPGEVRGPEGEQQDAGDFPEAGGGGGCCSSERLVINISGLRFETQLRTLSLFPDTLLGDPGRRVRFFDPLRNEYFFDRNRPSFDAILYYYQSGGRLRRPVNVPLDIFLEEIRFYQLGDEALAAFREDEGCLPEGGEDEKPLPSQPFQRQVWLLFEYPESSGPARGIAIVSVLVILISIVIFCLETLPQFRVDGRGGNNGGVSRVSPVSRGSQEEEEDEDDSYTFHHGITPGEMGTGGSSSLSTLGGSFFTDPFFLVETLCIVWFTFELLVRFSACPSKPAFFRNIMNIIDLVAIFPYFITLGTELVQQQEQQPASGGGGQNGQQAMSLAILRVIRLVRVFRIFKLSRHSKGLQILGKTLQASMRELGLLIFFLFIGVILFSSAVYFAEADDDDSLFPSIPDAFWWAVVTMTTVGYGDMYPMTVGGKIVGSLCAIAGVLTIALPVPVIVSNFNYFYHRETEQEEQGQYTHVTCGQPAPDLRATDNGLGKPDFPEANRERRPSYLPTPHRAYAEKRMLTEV

Rat whole blood = Rat whole blood (Rattus norvegicus, UniProt P15384); format: cell-based; details: IL-17A release, thapsigargin, 24 Hr, at least 2 replicates
Chain of Rat whole blood (P15384 whole entry): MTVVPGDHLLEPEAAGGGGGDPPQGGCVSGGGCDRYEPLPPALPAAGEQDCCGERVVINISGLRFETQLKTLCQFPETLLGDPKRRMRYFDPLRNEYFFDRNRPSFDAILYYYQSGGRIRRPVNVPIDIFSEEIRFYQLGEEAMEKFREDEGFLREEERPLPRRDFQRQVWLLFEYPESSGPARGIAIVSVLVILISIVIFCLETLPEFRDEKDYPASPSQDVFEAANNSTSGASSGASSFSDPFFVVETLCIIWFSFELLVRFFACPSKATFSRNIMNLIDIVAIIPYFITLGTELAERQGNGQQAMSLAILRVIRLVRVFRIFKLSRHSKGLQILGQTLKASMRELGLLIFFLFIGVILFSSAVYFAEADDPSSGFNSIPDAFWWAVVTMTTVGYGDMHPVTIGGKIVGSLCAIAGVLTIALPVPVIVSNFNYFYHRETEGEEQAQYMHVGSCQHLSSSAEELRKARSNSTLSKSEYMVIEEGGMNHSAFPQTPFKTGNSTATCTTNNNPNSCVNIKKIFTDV

human Kv1.2 = biological target: T3, human Kv1.2 (Homo sapiens, UniProt P16389); assay: cell-based; details: ratio of patch clamp IC50 values
T3 construct: expressed in transfected cells; host or cells: CHO
T3 sequence (P16389 whole entry): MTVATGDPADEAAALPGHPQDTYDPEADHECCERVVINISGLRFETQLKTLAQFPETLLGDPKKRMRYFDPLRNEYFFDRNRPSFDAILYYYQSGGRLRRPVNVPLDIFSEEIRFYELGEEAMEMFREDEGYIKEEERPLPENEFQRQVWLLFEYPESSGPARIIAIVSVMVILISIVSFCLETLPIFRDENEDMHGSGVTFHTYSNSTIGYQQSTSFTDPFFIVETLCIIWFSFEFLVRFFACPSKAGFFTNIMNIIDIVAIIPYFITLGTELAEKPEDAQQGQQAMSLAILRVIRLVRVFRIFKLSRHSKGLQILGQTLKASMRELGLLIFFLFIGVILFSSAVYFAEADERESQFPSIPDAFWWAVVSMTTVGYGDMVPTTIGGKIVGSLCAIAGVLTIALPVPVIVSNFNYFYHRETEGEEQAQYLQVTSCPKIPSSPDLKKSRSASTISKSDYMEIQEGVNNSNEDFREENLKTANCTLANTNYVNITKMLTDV

human Kv1.1 = biological target: T4, human Kv1.1 (Homo sapiens, UniProt Q09470); assay: cell-based; details: ratio of patch clamp IC50 values
T4 construct: expressed in transfected cells; host or cells: CHO
T4 sequence (Q09470 whole entry): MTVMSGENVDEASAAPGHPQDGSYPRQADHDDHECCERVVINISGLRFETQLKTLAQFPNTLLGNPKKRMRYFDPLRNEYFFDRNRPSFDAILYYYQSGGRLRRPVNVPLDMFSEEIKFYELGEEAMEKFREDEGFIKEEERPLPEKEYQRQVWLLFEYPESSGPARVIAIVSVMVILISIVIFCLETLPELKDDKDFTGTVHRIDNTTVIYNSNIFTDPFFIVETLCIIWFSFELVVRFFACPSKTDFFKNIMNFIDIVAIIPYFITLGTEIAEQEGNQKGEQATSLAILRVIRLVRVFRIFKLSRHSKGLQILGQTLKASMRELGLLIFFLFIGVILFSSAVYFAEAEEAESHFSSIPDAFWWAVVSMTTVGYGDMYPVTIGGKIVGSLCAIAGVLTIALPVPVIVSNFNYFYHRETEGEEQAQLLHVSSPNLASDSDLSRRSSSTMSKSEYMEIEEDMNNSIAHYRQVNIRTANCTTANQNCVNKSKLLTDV

CCCC[C@H](NC(=O)[C@@H]1CCCN1)C(=O)N[C@@H](CCC(=O)O)C(=O)N[C@@H](CCCC)C(=O)N[C@@H](CCCNC(=N)N)C(=O)N[C@H]1CSSC[C@@H]2NC(=O)[C@H](CCCCN)NC(=O)CNC(=O)[C@H](Cc3ccccc3)NC(=O)[C@H]([C@@H](C)CC)NC(=O)[C@H](CO)NC(=O)CNC(=O)[C@H]([C@@H](C)CC)NC(=O)[C@H](C)NC(=O)[C@H](C)NC(=O)[C@H](CC(C)C)NC(=O)[C@@H]3CSSC[C@@H](C(=O)N[C@@H](Cc4ccc(O)cc4)C(=O)N4CCC[C@H]4C(=O)N[C@@H](CCCNC(=N)N)C(=O)O)NC(=O)[C@H](CCCCN)NC(=O)[C@H](CSSC[C@H](NC(=O)[C@H](CCC(=O)O)NC(=O)[C@H](C(C)C)NC(=O)[C@H](CN)NC(=O)[C@H](C)NC(=O)[C@H](CO)NC1=O)C(=O)N[C@@H](CCCCN)C(=O)N[C@@H](CCC(N)=O)C(=O)N[C@@H](CCCCN)C(=O)N3)NC(=O)[C@H](CCCCN)NC(=O)[C@H](CCCCN)NC(=O)[C@H](CC(N)=O)NC(=O)[C@H](CCCC)NC2=O [compound 8] (H-P[Nle]E[Nle]RCSA[Dap]VECKQKCLAAIGSIFGKC[Nle]NKKCKCYPR-OH; disulfide 6-27, 12-32, 16-34)
IC50 [1]: 0.26 nM

CCCC[C@H](NC(=O)[C@@H]1CCCN1)C(=O)N[C@@H](CCC(=O)O)C(=O)N[C@@H](CCCC)C(=O)N[C@@H](CCCNC(=N)N)C(=O)N[C@H]1CSSC[C@@H]2NC(=O)[C@H](CCCCN)NC(=O)CNC(=O)[C@H](Cc3ccccc3)NC(=O)[C@H]([C@@H](C)CC)NC(=O)[C@H](CO)NC(=O)CNC(=O)[C@H]([C@@H](C)CC)NC(=O)[C@H](C)NC(=O)[C@H](C)NC(=O)[C@H](CC(C)C)NC(=O)[C@@H]3CSSC[C@@H](C(=O)N[C@@H](Cc4ccc(O)cc4)C(=O)N4CCC[C@H]4C(=O)N[C@@H](CCCNC(=N)N)C(=O)O)NC(=O)[C@H](CCCCN)NC(=O)[C@H](CSSC[C@H](NC(=O)[C@H](CCC(=O)O)NC(=O)[C@H](C(C)C)NC(=O)[C@H](CCCN)NC(=O)[C@H](C)NC(=O)[C@H](CO)NC1=O)C(=O)N[C@@H](CCCCN)C(=O)N[C@@H](CCC(N)=O)C(=O)N[C@@H](CCCCN)C(=O)N3)NC(=O)[C@H](CCCCN)NC(=O)[C@H](CCCCN)NC(=O)[C@H](CC(N)=O)NC(=O)[C@H](CCCC)NC2=O [compound 6] (H-P[Nle]E[Nle]RCSA[Orn]VECKQKCLAAIGSIFGKC[Nle]NKKCKCYPR-OH; disulfide 6-27, 12-32, 16-34)
IC50 [1]: 33 nM

CCCC[C@H](NC(=O)[C@@H]1CCCN1)C(=O)N[C@@H](CCC(=O)O)C(=O)N[C@@H](CCCC)C(=O)N[C@@H](CCCNC(=N)N)C(=O)N[C@H]1CSSC[C@@H]2NC(=O)[C@H](CCCCN)NC(=O)CNC(=O)[C@H](Cc3ccccc3)NC(=O)[C@H]([C@@H](C)CC)NC(=O)[C@H](CO)NC(=O)CNC(=O)[C@H]([C@@H](C)CC)NC(=O)[C@H](C)NC(=O)[C@H](C)NC(=O)[C@H](CC(C)C)NC(=O)[C@@H]3CSSC[C@@H](C(=O)N[C@@H](Cc4ccc(O)cc4)C(=O)N4CCC[C@H]4C(=O)N[C@@H](CCCNC(=N)N)C(N)=O)NC(=O)[C@H](CCCCN)NC(=O)[C@H](CSSC[C@H](NC(=O)[C@H](CCC(=O)O)NC(=O)[C@H](CCCNC(=N)N)NC(=O)[C@H](CO)NC(=O)[C@H](C)NC(=O)[C@H](CO)NC1=O)C(=O)N[C@@H](C)C(=O)N[C@@H](CCC(N)=O)C(=O)N[C@@H](CO)C(=O)N3)NC(=O)[C@H](CCCCN)NC(=O)CNC(=O)[C@H](CC(N)=O)NC(=O)[C@H](CCCC)NC2=O [compound 12] (H-P[Nle]E[Nle]RCSASRECAQSCLAAIGSIFGKC[Nle]NGKCKCYPR-NH2; disulfide 6-27, 12-32, 16-34)
IC50 [1]: 0.45 nM

CCCC[C@H](NC(=O)[C@@H]1CCCN1)C(=O)N[C@@H](CCC(=O)O)C(=O)N[C@@H](CCCC)C(=O)N[C@@H](CCCNC(=N)N)C(=O)N[C@H]1CSSC[C@@H]2NC(=O)[C@H](CCCCN)NC(=O)CNC(=O)[C@H](Cc3ccccc3)NC(=O)[C@H]([C@@H](C)CC)NC(=O)[C@H](CO)NC(=O)CNC(=O)[C@H]([C@@H](C)CC)NC(=O)[C@H](C)NC(=O)[C@H](C)NC(=O)[C@H](CC(C)C)NC(=O)[C@@H]3CSSC[C@@H](C(=O)N[C@@H](Cc4ccc(O)cc4)C(=O)N4CCC[C@H]4C(=O)N[C@@H](CCCNC(=N)N)C(=O)O)NC(=O)[C@H](CCCCN)NC(=O)[C@H](CSSC[C@H](NC(=O)[C@H](CCC(=O)O)NC(=O)[C@H](C(C)C)NC(=O)[C@H](CO)NC(=O)[C@H](C)NC(=O)[C@H](CCCN)NC1=O)C(=O)N[C@@H](CCCCN)C(=O)N[C@@H](CCC(N)=O)C(=O)N[C@@H](CCCCN)C(=O)N3)NC(=O)[C@H](CCCCN)NC(=O)[C@H](CCCCN)NC(=O)[C@H](CC(N)=O)NC(=O)[C@H](CCCC)NC2=O [compound 2] (H-P[Nle]E[Nle]RC[Orn]ASVECKQKCLAAIGSIFGKC[Nle]NKKCKCYPR-OH; disulfide 6-27, 12-32, 16-34)
IC50 [1]: 0.12 nM

CCCC[C@H](NC(=O)[C@@H]1CCCN1)C(=O)N[C@@H](CCC(=O)O)C(=O)N[C@@H](CCCC)C(=O)N[C@@H](CCCNC(=N)N)C(=O)N[C@H]1CSSC[C@@H]2NC(=O)[C@H](CCCCN)NC(=O)CNC(=O)[C@H](Cc3ccccc3)NC(=O)[C@H]([C@@H](C)CC)NC(=O)[C@H](CO)NC(=O)CNC(=O)[C@H]([C@@H](C)CC)NC(=O)[C@H](C)NC(=O)[C@H](C)NC(=O)[C@H](CC(C)C)NC(=O)[C@@H]3CSSC[C@@H](C(=O)N[C@@H](Cc4ccc(O)cc4)C(=O)N4CCC[C@H]4C(=O)N[C@@H](CCCNC(=N)N)C(=O)O)NC(=O)[C@H](CCCCN)NC(=O)[C@H](CSSC[C@H](NC(=O)[C@H](CCC(=O)O)NC(=O)[C@H](C(C)C)NC(=O)[C@H](CO)NC(=O)[C@H](C)NC(=O)[C@H](CCN)NC1=O)C(=O)N[C@@H](C)C(=O)N[C@@H](CCC(N)=O)C(=O)N[C@@H](CO)C(=O)N3)NC(=O)[C@H](CCCCN)NC(=O)CNC(=O)[C@H](CC(N)=O)NC(=O)[C@H](CCCC)NC2=O [compound 9] (H-P[Nle]E[Nle]RC[Dab]ASVECAQSCLAAIGSIFGKC[Nle]NGKCKCYPR-OH; disulfide 6-27, 12-32, 16-34)
IC50 [1]: 4.6 nM

CCCC[C@H](NC(=O)[C@@H]1CCCN1)C(=O)N[C@@H](CCC(=O)O)C(=O)N[C@@H](CCCC)C(=O)N[C@@H](CCCNC(=N)N)C(=O)N[C@H]1CSSC[C@@H]2NC(=O)[C@H](CCCCN)NC(=O)CNC(=O)[C@H](Cc3ccccc3)NC(=O)[C@H]([C@@H](C)CC)NC(=O)[C@H](CO)NC(=O)CNC(=O)[C@H]([C@@H](C)CC)NC(=O)[C@H](C)NC(=O)[C@H](C)NC(=O)[C@H](CC(C)C)NC(=O)[C@@H]3CSSC[C@@H](C(=O)N[C@@H](Cc4ccc(O)cc4)C(=O)N4CCC[C@H]4C(=O)N[C@@H](CCCNC(=N)N)C(N)=O)NC(=O)[C@H](CCCCN)NC(=O)[C@H](CSSC[C@H](NC(=O)[C@H](CCC(=O)O)NC(=O)[C@H](C(C)C)NC(=O)[C@H](CO)NC(=O)[C@H](C)NC(=O)[C@H](CCCNC(=N)N)NC1=O)C(=O)N[C@@H](C)C(=O)N[C@@H](CCC(N)=O)C(=O)N[C@@H](CO)C(=O)N3)NC(=O)[C@H](CCCCN)NC(=O)CNC(=O)[C@H](CC(N)=O)NC(=O)[C@H](CCCC)NC2=O [compound 11] (H-P[Nle]E[Nle]RCRASVECAQSCLAAIGSIFGKC[Nle]NGKCKCYPR-NH2; disulfide 6-27, 12-32, 16-34)
IC50 [1]: 0.22 nM

CCCC[C@@H]1NC(=O)[C@@H]2CSSC[C@H](NC(=O)[C@H](CCCNC(=N)N)NC(=O)[C@H](CCCC)NC(=O)[C@H](CC(=O)O)NC(=O)[C@H](CCCC)NC(=O)[C@@H](N)CC(N)=O)C(=O)N[C@@H](CO)C(=O)N[C@@H](C)C(=O)N[C@@H](CO)C(=O)N[C@@H](C(C)C)C(=O)N[C@@H](CCC(=O)O)C(=O)N[C@H]3CSSC[C@H](NC(=O)[C@H](CCCCN)NC(=O)[C@H](CCCCN)NC(=O)[C@H](CC(N)=O)NC1=O)C(=O)N[C@@H](CCCCN)C(=O)N[C@H](C(=O)N[C@@H](Cc1ccc(O)cc1)C(=O)N1CCC[C@H]1C(=O)N[C@@H](CCCNC(=N)N)C(N)=O)CSSC[C@H](NC(=O)[C@H](CCCCN)NC(=O)[C@H](CCC(N)=O)NC(=O)[C@H](CCCCN)NC3=O)C(=O)N[C@@H](CCCCN)C(=O)N[C@@H](C)C(=O)N[C@@H]([C@@H](C)CC)C(=O)NCC(=O)N[C@@H](CO)C(=O)N[C@@H]([C@@H](C)CC)C(=O)N[C@@H](Cc1ccccc1)C(=O)NCC(=O)N[C@@H](CCCCN)C(=O)N2 [compound 53] (H-N[Nle]D[Nle]RCSASVECKQKCKAIGSIFGKC[Nle]NKKCKCYPR-NH2; disulfide 6-26, 12-31, 16-33)
Selectivity ratio Kv1.6/Kv1.3 (human Kv1.6): 707
IC50 (Rat whole blood): 1 nM
Selectivity ratio Kv1.2/Kv1.3 (human Kv1.2): 123
Selectivity ratio Kv1.1/Kv1.3 (human Kv1.1): >2200
